Test results published in US20230218255A1, “IMAGING OF MYELOMA BONE LESIONS” (Blue Earth Diagnostics Limited, priority 2022, published 2023).

Tested on: myeloma bone lesion
Experiment: [^18F]-FACBC PET and fused PET/CT imaging of the lumbar vertebrae
Format: in vivo
Settings: coronal PET and PET/CT of lumbar vertebrae; PET acquisition started 5 minutes after administration of 319 MBq
Method: In an exemplary method, lesion [^18F]-FACBC uptake is visually compared to [^18F]-FACBC activity in the bone marrow. [^18F]-FACBC uptake higher than the bone marrow is considered as suspicious for myeloma. [^18F]-FACBC uptake similar or less than the bone marrow is considered as non-suspicious for myeloma.
FIG. 1: Coronal [^18F]-FACBC PET (left) and fused PET/CT (right) images of the lumbar vertebrae. […] The PET scan acquisition was started 5 minutes after administration of 319 MBq of [^18F]-FACBC.
In an aspect of the present disclosure, there is provided a method of diagnosing myeloma bone lesions in a subject comprising the steps of: • (a) administering a detectable amount of [^18F]-FACBC to the subject; • (b) acquiring one or more positron emission tomography (PET) scan images of the subject for a region of the subject that includes a potential myeloma bone lesion; and • (c) comparing [^18F]-FACBC uptake in the potential lesion against [^18F]-FACBC uptake in the bone marrow of the region of the subject; wherein lesion [^18F]-FACBC uptake which is higher than bone marrow [^18F]-FACBC uptake is indicative of the presence of myeloma bone lesions.

## N[C@]1(C(=O)O)C[C@@H](F)C1 [[^18F]-FACBC, anti-1-amino-3-^18F-fluorocyclobutane-1-carboxylic acid]
  [^18F]-FACBC uptake in area diagnosed as a lesion compared with surrounding bone marrow: higher than the surrounding bone marrow
